What all share (test): biochemical
What all share (parameters): DiscoveRx KINOMEscan active site-directed competition binding; percent of control kinase bound to immobilised ligand

Assay [1] concerns the target T1, ABL1(Q252H)-nonphosphorylated (Homo sapiens, UniProt P00519, Q252H).
T1 construct: nonphosphorylated

Assay [2] addresses T2, ABL1(Q252H)-phosphorylated (Homo sapiens, UniProt P00519, Q252H).
T2 construct: phosphorylated

Assay [3] has as its target T3, JAK3(JH1domain-catalytic) (Homo sapiens, UniProt P52333).
T3 construct: JH1domain-catalytic
T3 sequence (P52333 1-1124): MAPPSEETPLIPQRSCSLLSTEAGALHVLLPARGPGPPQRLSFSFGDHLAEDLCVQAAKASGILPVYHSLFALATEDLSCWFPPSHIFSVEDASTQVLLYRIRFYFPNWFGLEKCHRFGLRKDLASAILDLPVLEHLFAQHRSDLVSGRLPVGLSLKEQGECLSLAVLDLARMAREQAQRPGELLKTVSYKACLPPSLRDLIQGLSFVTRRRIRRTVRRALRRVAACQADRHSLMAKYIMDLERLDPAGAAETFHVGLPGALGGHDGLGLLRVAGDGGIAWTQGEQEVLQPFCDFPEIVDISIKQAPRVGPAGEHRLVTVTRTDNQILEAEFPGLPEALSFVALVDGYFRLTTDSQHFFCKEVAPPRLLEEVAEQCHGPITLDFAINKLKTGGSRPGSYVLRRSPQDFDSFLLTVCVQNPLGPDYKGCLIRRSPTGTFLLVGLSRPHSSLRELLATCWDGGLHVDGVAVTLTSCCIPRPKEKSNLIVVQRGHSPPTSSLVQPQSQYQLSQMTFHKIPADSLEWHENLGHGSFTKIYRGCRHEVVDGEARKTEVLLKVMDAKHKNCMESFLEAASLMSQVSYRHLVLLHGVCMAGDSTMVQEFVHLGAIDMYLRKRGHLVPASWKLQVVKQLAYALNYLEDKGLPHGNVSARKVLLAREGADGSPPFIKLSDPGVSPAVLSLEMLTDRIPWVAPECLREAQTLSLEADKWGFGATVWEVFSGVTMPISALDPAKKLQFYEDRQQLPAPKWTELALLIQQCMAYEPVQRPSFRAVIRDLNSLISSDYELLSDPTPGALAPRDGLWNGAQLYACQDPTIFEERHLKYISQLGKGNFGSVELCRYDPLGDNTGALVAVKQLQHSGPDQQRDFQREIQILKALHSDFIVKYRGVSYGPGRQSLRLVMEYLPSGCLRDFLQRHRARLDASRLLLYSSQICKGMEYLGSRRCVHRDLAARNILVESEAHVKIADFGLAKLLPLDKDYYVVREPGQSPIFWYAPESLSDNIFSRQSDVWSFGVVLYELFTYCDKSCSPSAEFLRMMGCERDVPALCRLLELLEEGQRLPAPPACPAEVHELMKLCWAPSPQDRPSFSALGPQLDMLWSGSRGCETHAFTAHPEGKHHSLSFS

The target of assay [4] is T4, MAP3K3 (Homo sapiens, UniProt Q99759).
T4 sequence (Q99759 1-626): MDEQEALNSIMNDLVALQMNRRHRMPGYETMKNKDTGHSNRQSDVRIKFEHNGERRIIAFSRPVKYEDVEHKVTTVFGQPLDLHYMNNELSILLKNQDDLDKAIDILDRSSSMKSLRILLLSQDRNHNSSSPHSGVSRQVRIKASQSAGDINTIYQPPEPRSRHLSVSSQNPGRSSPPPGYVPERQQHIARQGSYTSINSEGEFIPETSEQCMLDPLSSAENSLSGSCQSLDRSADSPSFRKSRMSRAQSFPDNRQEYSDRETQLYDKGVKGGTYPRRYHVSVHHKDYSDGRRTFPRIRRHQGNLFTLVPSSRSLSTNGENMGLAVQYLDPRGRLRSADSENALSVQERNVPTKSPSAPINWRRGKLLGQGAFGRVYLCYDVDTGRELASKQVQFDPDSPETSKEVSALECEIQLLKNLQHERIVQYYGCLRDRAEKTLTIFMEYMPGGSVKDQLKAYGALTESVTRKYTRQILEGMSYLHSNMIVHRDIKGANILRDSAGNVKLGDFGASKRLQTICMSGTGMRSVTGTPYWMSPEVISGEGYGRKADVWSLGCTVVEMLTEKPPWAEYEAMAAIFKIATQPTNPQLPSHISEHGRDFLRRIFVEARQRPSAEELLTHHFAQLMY

The target of assay [5] is T5, PRKG2 (Homo sapiens, UniProt Q13237).
T5 sequence (Q13237 1-762): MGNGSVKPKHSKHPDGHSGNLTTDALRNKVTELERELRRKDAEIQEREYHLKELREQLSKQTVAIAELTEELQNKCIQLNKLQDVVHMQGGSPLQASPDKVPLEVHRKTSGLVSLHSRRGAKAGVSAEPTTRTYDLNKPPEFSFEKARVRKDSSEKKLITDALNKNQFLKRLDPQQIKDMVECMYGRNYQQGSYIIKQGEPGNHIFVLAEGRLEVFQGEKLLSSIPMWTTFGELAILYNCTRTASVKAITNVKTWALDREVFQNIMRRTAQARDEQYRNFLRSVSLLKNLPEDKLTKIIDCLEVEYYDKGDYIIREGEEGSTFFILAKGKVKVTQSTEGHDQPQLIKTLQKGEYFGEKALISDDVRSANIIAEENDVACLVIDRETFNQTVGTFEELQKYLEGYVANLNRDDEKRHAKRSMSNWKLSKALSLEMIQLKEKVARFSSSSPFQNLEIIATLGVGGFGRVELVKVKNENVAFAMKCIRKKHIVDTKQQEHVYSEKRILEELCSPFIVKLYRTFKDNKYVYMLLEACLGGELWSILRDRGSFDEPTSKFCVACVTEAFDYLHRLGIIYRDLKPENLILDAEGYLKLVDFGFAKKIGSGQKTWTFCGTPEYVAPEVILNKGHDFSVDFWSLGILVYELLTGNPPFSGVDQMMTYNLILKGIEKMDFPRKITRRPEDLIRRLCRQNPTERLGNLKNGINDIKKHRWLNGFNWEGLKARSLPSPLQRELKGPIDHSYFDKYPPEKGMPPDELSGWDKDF

The mark [6] stands for this setting: read-out: Rucaparib / %Ctrl @ 10000nM, binding competition, % of control.
[7] abbreviates: read-out: Talazoparib (BMN 673) / %Ctrl @ 10000nM.
Where [8] appears, read: read-out: Niraparib (MK-4827) / %Ctrl @ 10000nM.
[9] abbreviates: read-out: Olaparib / %Ctrl @ 10000nM.

Structures are written as SMILES. Read-outs that look alike come from different tables or passages of the source.

Turning to `CNCc1ccc(-c2[nH]c3cc(F)cc4c3c2CCNC4=O)cc1` [Rucaparib], the percent of control binding at 10 µM was determined as 62% in assay [1] (setting [6]); 72% in assay [2] (setting [6]); 70% in assay [3] (setting [6]); 85% in assay [4] (setting [6]); 60% in assay [5] (setting [6]).

Take `Cn1ncnc1[C@H]1c2n[nH]c(=O)c3cc(F)cc(c23)N[C@@H]1c1ccc(F)cc1` [Talazoparib]: the percent of control binding at 10 µM came out at 73% in assay [1] (setting [7]); 100% in assay [2] (setting [7]); 100% in assay [3] (setting [7]); 94% in assay [4] (setting [7]); 100% in assay [5] (setting [7]).

As for `NC(=O)c1cccc2cn(-c3ccc([C@@H]4CCCNC4)cc3)nc12` [Niraparib], the percent of control binding at 10 µM in assay [1] (setting [8]) is 58%; in assay [2] (setting [8]), 51%; in assay [3] (setting [8]), 95%; in assay [4] (setting [8]), 100%; in assay [5] (setting [8]) it was 97%.

`O=C(c1cc(Cc2n[nH]c(=O)c3ccccc23)ccc1F)N1CCN(C(=O)C2CC2)CC1` [Olaparib]: the percent of control binding at 10 µM in assay [1] (setting [9]) is 98%; in assay [2] (setting [9]), 71%; in assay [3] (setting [9]) it was 83%; in assay [4] (setting [9]) it was 88%; in assay [5] (setting [9]), 85%.

The record behind these values is article PMC7026418, “The kinase polypharmacology landscape of clinical PARP inhibitors” (Scientific Reports, 2020).
